Assay results taken from PMC9582434, “Ryanodine receptor-active non-dioxin-like polychlorinated biphenyls cause neurobehavioral deficits in larval zebrafish” (Frontiers in Toxicology, 2022).

Key:
[1] = Enantioselective gas chromatographic analysis of PCB residues in larvae; format: in vivo, zebrafish; conditions: residues in exposed larvae; no significant atropisomeric enrichment
Procedure: The enantioselective analysis of PCB 84 was performed on a 6890 Agilent gas chromatograph equipped with a ^63Ni-µECD detector and CP-Chiralsil-Dex CB capillary column with cyclodextrin directly bonded to dimethylpolysiloxane (25 m length, 0.25 mm inner diameter, 0.25 µm film thickness; Varian, Palo Alto, CA, United States). The temperature program was as follows ([Kania-Korwel et al., 2006]): starting temperature 50°C, hold for 1 min, 10°C/min to 140°C for 100 min, then 10°C/min to 200°C for 5 min. The enantioselective analysis of PCB 95 was performed on a 7890 Agilent gas chromatograph equipped with a ^63Ni-µECD detector and Chiraldex B-DM (BDM) capillary column (length, 30 m × inner diameter, 250 μm × 0.12 µm film thickness, Supelco; St. Louis, MO, United States). The following temperature program was used ([Uwimana et al., 2016]): starting temperature 50°C for 1 min, 10°C/min to 160°C for 90 min, then 10°C/min to 200°C for 10 min. For both instruments, the injector was operated in the splitless mode at 250°C, and the detector temperature was 250°C. […] Enantiomer fractions (EF) were calculated with the drop valley method ([Asher et al., 2009]; [Uwimana et al., 2016]) as EF = Area E1/(Area E1 + Area E2), were Area E1 and Area E2 denote the peak area of the first and second eluting atropisomer, respectively. […]

larval zebrafish = assay: Teratological and mortality assessment, static exposure 6 hpf to 5 dpf; format: in vivo; conditions: 30 µM; by 3 dpf; data not shown
Procedure: At 4 hpf, embryos were treated with 50 µl of 41 mg/ml protease from Streptomyces griseus (P5147, Sigma-Aldrich, St. Louis, MO, United States) in 25 ml of FW for a maximum of 6 min to remove the chorion ([Truong et al., 2011]). At 5 hpf, embryos were placed in individual wells of 96-well plates filled with 100 µl of EM. At 6 hpf, embryos were exposed to a 2× concentration of the selected PCB congeners or controls that were diluted in 100 μl EM to produce a 1× concentration in a total of 200 µl solution. […] After exposure, plates were covered with Parafilm M (Bemis NA, Neenah, WI, United States) to reduce evaporation and placed in an incubator at 28.5°C with 14 h light (∼300 lux)/10 h dark cycles. Final DMSO concentrations were 0.2% (vol/vol) for all exposures. Fish were statically exposed until 5 dpf.
Exposed fish were examined daily for any gross morphological malformations and mortality using an Olympus Stereo Microscope Model SZ61 (Olympus, Japan) up to ×4.5 magnification. […] Teratological endpoints that were evaluated include yolk sac edema, pericardial edema, somite formation, deformities of the body axis, notochord, craniofacial structures, or caudal fin. Malformations were scored in a binary manner of either present or not present. Fish that were scored as neither malformed nor dead were deemed viable. […]

SMILES | average EF (enantiomer fraction) values [1] | loss of viability (larval zebrafish) [%]
Clc1cccc(-c2c(Cl)ccc(Cl)c2Cl)c1Cl [PCB 84] | 0.50 ± 0.01 | 
Clc1ccc(Cl)c(-c2c(Cl)ccc(Cl)c2Cl)c1 [PCB 95, 2,2',3,5',6-pentachlorobiphenyl] | 0.50 ± 0.01 | ~100
